According to article PMC10823475, “Design, Synthesis, and Evaluation of Inhibitors of Hedgehog Acyltransferase” (Journal of Medicinal Chemistry, 2024):
Where two headings read alike, the source gives them in different places.

Legend:
[1] = system: palmitoylation of SHH in HEK293a SHH+ cells; experiment: Cell-based YnPal metabolic tagging assay; settings: for IC50: HEK293-A, HEK293a SHH+ cells
Procedure: We first quantified the direct impact of previously reported HHAT inhibitors on palmitoylation of SHH using a cell-based metabolic tagging assay.[27],[36] In this assay, HEK293a SHH^+ cells were incubated with varying concentrations of inhibitors in the presence of alkyne palmitic acid derivative YnPal (Figure 5A).[35] Following cell lysis and bioorthogonal derivatization of palmitoylated proteins with capture reagent azide-TAMRA-biotin (AzTB)^67 using a copper catalyzed azide–alkyne cycloaddition (CuAAC) reaction, AzTB-labeled SHH is shifted to higher apparent molecular weight in sodium dodecyl sulfate polyacrylamide gel electrophoresis (SDS-PAGE), thereby enabling quantification of acylated SHH by α-SHH immunoblotting (compound 2, 17, and 22) or fluorescence imaging (compound 24, 28, and 30; SI, Figure S5–S6).[42]
HEK293a SHH^+ cells were plated at 500,000 cells/well of a 6-well plate in a volume of 3 mL/well and cultured for 24 h as described. Cells were treated with DMSO vehicle, or RUSKI compounds in DMSO (0.016–10 μM final). After 1 h, 3 μL of YnPal (20 mM DMSO stock; 20 μM final) were added and the cells were cultured for another 6 h. Subsequently, cells were washed with PBS and lysed using PBS supplemented with 1% Triton, 0.1% SDS and Complete EDTA-free protease inhibitor cocktail (Roche Diagnostics). Cells were scraped off the plates and lysates centrifuged at 13 000g for 10 min at 4 °C to remove cell debris. Protein concentration was determined using the DC Protein Assay (Bio-Rad) following the manufacturer’s procedure.
The click reaction in cell lysate was performed as previously described.[42] Briefly, 1 μL AzTB (10 mM in DMSO, 100x), 2 μL CuSO4 (50 mM in H2O, 50x), 2 μL tris(2 carboxyethyl)phosphine hydrochloride (TCEP) (50 mM in H2O, 50×), and 1 μL tris[(1-benzyl-1H-1,2,3-triazol-4-yl)methyl]amine (TBTA, 10 mM in DMSO, 100×) were mixed. Then 6 μL of this click mixture were added to 100 μL of lysate, adjusted with lysis buffer to a protein concentration of 1 mg/mL. The click reaction was shaken at RT for 1 h. Subsequently, proteins were precipitated by adding methanol, chloroform, and water at a ratio of 2:0.5:1 to remove click reagents and excess of AzTB. The mixture was centrifuged (13 000g, 5 min at 4 °C) and the methanol and water containing top layer removed. Following the addition of an excess of methanol, the precipitated proteins were isolated by centrifugation (13 000g, 10 min at 4 °C) and washed twice with methanol. The protein pellets were air-dried and redissolved in PBS containing 0.2% SDS and 0.1 mM DTT using sonication, and adjusted to a final protein concentration of 1 mg/mL.
For enrichment of YnPal-labeled proteins, 100 μg of lysate were incubated with 30 μL of prewashed (3 × 500 μL of 0.2% SDS in PBS) Dynabeads MyOne Streptavidin C1 beads (Invitrogen) for 1 h at room temperature. Beads ware washed twice with 500 μL of 0.2% SDS in PBS and boiled for 10 min in 15 μL of PBS containing SDS-PAGE sample buffer. The entire pull-down sample and 10 μg of total lysate and supernatant fractions were loaded on a 15% SDS-PAGE gel. Fluorescence was scanned using a Typhoon imager (GE Healthcare; excitation laser: 532 nm, emission filter: LPG (575–700 nm); PMT: 750 V).
Proteins were transferred to nitrocellulose membrane using a wet transfer apparatus (100 V, 1 h). Membranes were blocked with 5% BSA in TBS-T (0.1% Tween-20, 50 mM Tris, 150 mM NaCl, pH 7.5) for 1 h at room temperature, followed by overnight incubation with SHH H-160 primary antibody (Santa Cruz Biotechnology; sc-9024; 1:200 in TBS-T + 0.5% BSA) or α-tubulin primary antibody (Santa Cruz Biotechnology; sc-8035; 1:200 in TBS-T + 0.5% BSA) at 4 °C. Membranes were washed with TBS-T and further incubated at RT for 1 h with the appropriate secondary antibody (HRP conjugated goat-antimouse IgG (H+L) or goat-antirabbit IgG (H+L); Advansta; 1:10,000 in TBS-T + 0.5% BSA). […]

[2] = system: HH signaling (HEK293a SHH+ conditioned media on SHH-Light2 cells); experiment: Light2 dual-luciferase cell-based HH signaling assay (Firefly)
Procedure: Subsequently, the effect of analogues on HH signaling was investigated using a cellular luciferase reporter assay. Light2 cells derived from NIH3T3 cells constitutively express Renilla luciferase as an internal control for cell density alongside Firefly luciferase under the control of a HH-responsive Gli promoter.[43] HEK293a SHH^+ cells were incubated with varying inhibitor concentrations and SHH-containing conditioned media transferred to the NIH3T3-Light2 cells to mimic paracrine signaling[30],[35] (Figure 6A).
The Light2 cell-based signaling assay has been described previously.[35] Briefly, HEK293a SHH^+ cells were plated at 120,000 cells/well of a 12-well plate in a volume of 1 mL/well and cultured as described above. After 24 h, cells were washed with PBS, followed by addition of 1 mL of media containing 0.2% DMSO or varying inhibitor concentrations in DMSO (0.041–30 μM final). Additionally, SHH-Light2 cells were plated at 20,000 cells/well of a 96-well plate in 50 μL media. After another 24 h, 300 μL of the conditioned media were collected from each well of the treated HEK293a SHH^+ cells, centrifuged at 1000g for 10 min to remove detached cells and split into three wells of the SHH-Light2 cells (100 μL/well; 150 μL final volume in each well). The treated Light2 cells were cultured for another 48 h and subsequently washed with PBS. Firefly and Renilla luciferase activity was measured using the Dual-Luciferase reporter system (Promega Corporation, USA). Then 20 μL of 1× passive lysis buffer were added to each well. After 30 min at RT, 5 μL of each lysate were transferred to a white opaque 96-well plate. Then 20 μL/well of luciferase assay reagent II was added and the luminescence immediately recorded using a SpectraMax i3x plate reader (Molecular Devices LLC). Subsequently, 20 μL/well of 1× Stop&Glo substrate in Stop&Glo buffer was added and the luminescence immediately recorded for a second time. Data was evaluated using a “sigmoidal dose response (variable slope)” model in GraphPad Prism 5 (GraphPad Software, Inc.). The luminescence signal of the Firefly luciferase was normalized to the DMSO vehicle (100%) and the unconditioned media (0%) controls.

[3] = read-out: YnPal tagging IC50 (CI95)
[4] = Firefly luciferase, Light2 cells, read-out: HH signaling inhibition EC50 (CI95)

## C=CCNCC(=O)N1CCc2sccc2C1COc1ccc(Cl)cc1 (stereo not drawn) [Compound 2]
[1]; [3]
  IC50: 2.35 µM

## CC(=O)N1CCc2sccc2C1c1ccccc1 (stereo not drawn) [Compound 5]
[2]; [4]
  EC50: 4.56 µM

## CCC(C)CNCC(=O)N1CCc2sccc2C1c1cccc(C)c1 (stereo not drawn) [Compound 17]
[2]; [4]
  EC50: 1.17 µM
[1]; [3]
  IC50: 0.57 µM

## CCC(C)CNCC(=O)N1CCc2sccc2C1c1cccc(C)n1 (stereo not drawn) [Compound 22]
[2]; [4]
  EC50: 0.58 µM
[1]; [3]
  IC50: 1.08 µM

## Cc1cccc(C2c3ccsc3CCN2C(=O)CNCC(C)C)n1 (stereo not drawn) [Compound 24]
[2]; [4]
  EC50: 1.18 µM
[1]; [3]
  IC50: 0.49 µM

## Cc1cccc([C@@H]2c3ccsc3CCN2C(=O)CNCC(C)C)n1 [Compound 28]
[2]
  effect on HH signaling: inactive
[2]; [4]
  EC50: > 30 µM
[1]
  inhibition of SHH tagging by YnPal: inactive
[1]; [3]
  IC50: > 10 µM

## Cc1cccc([C@H]2c3ccsc3CCN2C(=O)CNCC(C)C)n1 [Compound 30]
[2]; [4]
  EC50: 0.1 µM
[2]; Light2 luciferase reporter, read-out: EC50 against HH signaling
  EC50: 0.099 µM
[1]; read-out: IC50, cellular YnPal labeling of SHH
  IC50: 0.076 µM
